From patent publication US7125695B2, “Directed evolution of microorganisms” (Genencor International, Inc., priority 1999, dated 2006) come the findings set out here.

The target of data set [1] is T1, Escherichia blattae 1,3-propanediol dehydrogenase (PDD, dhaT), mutant PDD from evolved strain GEB031 (ATCC PTA-92), SEQ ID NO:4 (Shimwellia blattae, UniProt Q3ZL59, H105L).
T1 construct: no tag
In words: PDD comparison, 1,3-propanediol dehydrogenase from evolved strain GEB031. It is filed as biochemical, Escherichia blattae GEB031 (ATCC PTA-92). Particulars: PDD from evolved strain GEB031, compared with wild type E. blattae. As to the method:
(§1) Strains—Wild type ATCC 33429, E. blattae comprising the mutant PDD as described in Example 4 and having ATCC accession number PTA-92.
(§2) Growth—Cells were grown in a complex medium at 30C 500 ml in a 2800 ml fernbach with shaking at 225 rpm for 20 hr. The medium consists of KH2PO4, 5.4 g/L; (NH4)2SO4, 1.2 g/L; MgSO47H2O, 0.4 g/L; yeast extract, 2.0 g/L; tryptone, 2.0 g/L; and glycerol, 9.2 g/L in tap water. The pH was adjusted to 7.1 with KOH before autoclaving (Honda, et al., 1980, J. Bacteriol, 143:1458–1465).
(§3) Extract prep—Cells were harvested by centrifugation with care to avoid anaerobic conditions. Pellets were resuspended in 100 mM Tricine pH 8.2 containing 50 mM KCl and 1 mM DTT. Cells were disrupted by passage through a French pressure cell. Crude extracts were clarified by centrifugation at 20K×g for 20 min followed by 100K×g for 1 hr to yield the high speed supernatant (HSS) fraction.
(§4) Assays—the assay for PDD was performed as described by Johnson, E. A. et al., 1987, J. Bacteriol. 169:2050–2054.
(§5) Partial purification of PDD—HSS was separated on a 16×100 Poros 20HQ column. The buffers were A, 50 mM HEPES, pH 7.4 containing 100 uM MnCl and B, A buffer containing 500 mM KCl. The column was loaded and developed at 10 ml/min. The gradient was 10 CV wash, a linear gradient to 70% B in 10 CV, and 1 CV to 100% B. The activity was detected in the very early fractions of the gradient. […]

For a further data set, the system named is wild-type E. blattae. Nature of the data set: Viability (plate counts) of wild-type E. blattae during glycerol fermentation with accumulation of 3HPA. Particulars: anaerobic glycerol fermentation, 30° C., 3HPA accumulated to 50 mM. It is filed as cell-based, Escherichia blattae ATCC 33429. As to the method: FIG. 5—Glycerol fermentation of E. blattae at pH 7.0. Culture conditions are described in the text. Plate counts were by serial dilution and performed in triplicate on Luria agar plates. Substrate and 0products were measured by HPLC.
The wild-type E. blattae and the evolved E. blattae were subjected to fermentation in the following medium: 75 g glycerol, 5 g K2HPO4.3H2O, 3 g KH2PO4, 2 g (NH4)2SO4, 0.4 g MgSO4.7H2O, 0.2 g CaCl2.2H2O, 4 mg CoCl2.2H2O, 2 g yeast extract, and 1 g peptone per liter water. The pH was maintained with 20% NaOH. Both fermentations were run at 30° C. with a N2 sparge and were inoculated with a stationary grown overnight preculture.
The wild-type E. blattae accumulated 3HPA and stopped growing and metabolizing glycerol. The accumulation of 3HPA was high and reached 50 mM. […] After the culture had consumed all of the glycerol more was added and the culture continued converting glycerol to 1,3-propanediol.

Substrate in data set [2]: NC(=O)c1ccc[n+]([C@@H]2O[C@H](COP(=O)([O-])OP(=O)(O)OC[C@H]3O[C@@H](n4cnc5c(N)ncnc54)[C@H](O)[C@@H]3O)[C@@H](O)[C@H]2O)c1
Nature of the data set: PDD kinetics, partially purified 1,3-propanediol dehydrogenase from wild type strain 33429. In kind it is biochemical, Escherichia blattae ATCC 33429. The conditions noted are these: other: PDD of wild type strain 33429; cofactor NAD; 30.0 °C. As to the method: as §1, §2, §3, §4, §5

Substrate in data set [3]: OCCCO
The data set is described as above. It is filed as biochemical, Escherichia blattae ATCC 33429. Particulars: other: PDD of wild type strain 33429; substrate 1,3-propanediol; 30.0 °C. As to the method:
as §1, §2, §3, §4, §5

T1 sequence (Q3ZL59 entry or part of it H105L): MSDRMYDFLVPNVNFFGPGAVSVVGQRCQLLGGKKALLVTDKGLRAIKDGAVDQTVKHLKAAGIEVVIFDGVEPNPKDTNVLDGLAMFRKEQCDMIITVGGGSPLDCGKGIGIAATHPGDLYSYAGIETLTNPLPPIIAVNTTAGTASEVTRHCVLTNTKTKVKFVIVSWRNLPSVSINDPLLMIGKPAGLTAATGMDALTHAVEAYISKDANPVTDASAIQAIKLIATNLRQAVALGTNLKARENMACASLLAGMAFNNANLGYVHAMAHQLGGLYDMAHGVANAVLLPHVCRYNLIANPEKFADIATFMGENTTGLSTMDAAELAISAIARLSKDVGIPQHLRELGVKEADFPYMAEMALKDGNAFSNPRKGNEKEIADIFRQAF

Turning to `OCCCO` [1,3-propanediol], the “Km for 1,3-propanediol” value in data set [1] is on record as “higher”.

Regarding `O=CCCO` [3HPA, 3-hydroxy-propionaldehyde], in the data set with wild-type E. blattae, the “toxicity of accumulated 3HPA (plate counts)” value is “toxic”.

B1: Escherichia blattae 1,3-propanediol dehydrogenase (PDD, dhaT), wild type, strain ATCC 33429 (Shimwellia blattae) (protein)
chain: MSDRMYDFLVPNVNFFGPGAVSVVGQRCQLLGGKKALLVTDKGLRAIKDGAVDQTVKHLKAAGIEVVIFDGVEPNPKDTNVLDGLAMFRKEQCDMIITVGGGSPHDCGKGIGIAATHPGDLYSYAGIETLTNPLPPIIAVNTTAGTASEVTRHCVLTNTKTKVKFVIVSWRNLPSVSINDPLLMIGKPAGLTAATGMDALTHAVEAYISKDANPVTDASAIQAIKLIATNLRQAVALGTNLKARENMACASLLAGMAFNNANLGYVHAMAHQLGGLYDMAHGVANAVLLPHVCRYNLIANPEKFADIATFMGENTTGLSTMDAAELAISAIARLSKDVGIPQHLRELGVKEADFPYMAEMALKDGNAFSNPRKGNEKEIADIFRQAF
notes: no tag
As a reminder, the Km is the concentration of substrate that gives half-maximal velocity. On to B1, for which the Km was 0.057 mM in data set [2] and 28 mM in data set [3].
